Assay: xn = mol fraction of the nth substance listed
Details: for mass density / viscosity: 100 kPa, Liquid; for mass density: Vibrating tube method; for surface tension liquid-gas: Drop volume

CC12CC3CC(C)(C1)CC(C)(C3)C2 [1,3,5-trimethyladamantane] + CCCCCCCO
Details | mass density [kg/m3] | surface tension liquid-gas [mN/m] | viscosity [mPa·s]
293.15 K, x2 = 0 | 887.48 | – | 2.601
293.15 K, x2 = 0.1001 | 882.47 | – | 2.626
293.15 K, x2 = 0.2001 | 877.46 | – | 2.775
293.15 K, x2 = 0.3002 | 872.11 | – | 2.97
293.15 K, x2 = 0.4004 | 866.49 | – | 3.242
293.15 K, x2 = 0.5001 | 860.53 | – | 3.5
293.15 K, x2 = 0.6002 | 854.11 | – | 4.051
293.15 K, x2 = 0.7001 | 847.23 | – | 4.645
293.15 K, x2 = 0.7999 | 839.77 | – | 5.371
293.15 K, x2 = 0.9002 | 831.44 | – | 6.221
298.15 K, x2 = 0 | 883.99 | 26.17 | 2.338
298.15 K, x2 = 0.1001 | 878.9 | 26.19 | 2.349
298.15 K, x2 = 0.2001 | 873.88 | 26.22 | 2.469
298.15 K, x2 = 0.3002 | 868.52 | 26.26 | 2.632
298.15 K, x2 = 0.4004 | 862.91 | 26.32 | 2.854
298.15 K, x2 = 0.5001 | 856.94 | 26.34 | 3.131
298.15 K, x2 = 0.6002 | 850.53 | 26.36 | 3.51
298.15 K, x2 = 0.7001 | 843.66 | 26.32 | 3.99
298.15 K, x2 = 0.7999 | 836.22 | 26.3 | 4.567
298.15 K, x2 = 0.9002 | 827.93 | 26.29 | 5.229
303.15 K, x2 = 0 | 880.47 | – | 2.118
303.15 K, x2 = 0.1001 | 875.31 | – | 2.114
303.15 K, x2 = 0.2001 | 870.27 | – | 2.212
303.15 K, x2 = 0.3002 | 864.91 | – | 2.35
303.15 K, x2 = 0.4004 | 859.29 | – | 2.533
303.15 K, x2 = 0.5001 | 853.32 | – | 2.758
303.15 K, x2 = 0.6002 | 846.91 | – | 3.066
303.15 K, x2 = 0.7001 | 840.05 | – | 3.457
303.15 K, x2 = 0.7999 | 832.63 | – | 3.924
303.15 K, x2 = 0.9002 | 824.38 | – | 4.464
308.15 K, x2 = 0 | 876.94 | – | 1.93
308.15 K, x2 = 0.1001 | 871.72 | – | 1.911
308.15 K, x2 = 0.2001 | 866.65 | – | 1.992
308.15 K, x2 = 0.3002 | 861.27 | – | 2.108
308.15 K, x2 = 0.4004 | 855.65 | – | 2.261
308.15 K, x2 = 0.5001 | 849.68 | – | 2.444
308.15 K, x2 = 0.6002 | 843.28 | – | 2.699
308.15 K, x2 = 0.7001 | 836.41 | – | 3.015
308.15 K, x2 = 0.7999 | 829.02 | – | 3.396
308.15 K, x2 = 0.9002 | 820.8 | – | 3.841
313.15 K, x2 = 0 | 873.4 | – | 1.765
313.15 K, x2 = 0.1001 | 868.1 | – | 1.737
313.15 K, x2 = 0.2001 | 863 | – | 1.802
313.15 K, x2 = 0.3002 | 857.62 | – | 1.899
313.15 K, x2 = 0.4004 | 851.98 | – | 2.027
313.15 K, x2 = 0.5001 | 846.01 | – | 2.178
313.15 K, x2 = 0.6002 | 839.62 | – | 2.387
313.15 K, x2 = 0.7001 | 832.76 | – | 2.648
313.15 K, x2 = 0.7999 | 825.37 | – | 2.957
313.15 K, x2 = 0.9002 | 817.19 | – | 3.327
318.15 K, x2 = 0 | 869.86 | – | 1.621
318.15 K, x2 = 0.1001 | 864.47 | – | 1.585
318.15 K, x2 = 0.2001 | 859.34 | – | 1.636
318.15 K, x2 = 0.3002 | 853.95 | – | 1.719
318.15 K, x2 = 0.4004 | 848.3 | – | 1.826
318.15 K, x2 = 0.5001 | 842.32 | – | 1.952
318.15 K, x2 = 0.6002 | 835.93 | – | 2.124
318.15 K, x2 = 0.7001 | 829.07 | – | 2.338
318.15 K, x2 = 0.7999 | 821.7 | – | 2.593
318.15 K, x2 = 0.9002 | 813.54 | – | 2.899
323.15 K, x2 = 0 | 866.31 | – | 1.494
323.15 K, x2 = 0.1001 | 860.82 | – | 1.452
323.15 K, x2 = 0.2001 | 855.66 | – | 1.494
323.15 K, x2 = 0.3002 | 850.25 | – | 1.561
323.15 K, x2 = 0.4004 | 844.59 | – | 1.652
323.15 K, x2 = 0.5001 | 838.61 | – | 1.756
323.15 K, x2 = 0.6002 | 832.21 | – | 1.899
323.15 K, x2 = 0.7001 | 825.35 | – | 2.049
323.15 K, x2 = 0.7999 | 817.99 | – | 2.287
323.15 K, x2 = 0.9002 | 809.87 | – | 2.541
328.15 K, x2 = 0 | 862.76 | – | 1.384
328.15 K, x2 = 0.1001 | 857.16 | – | 1.335
328.15 K, x2 = 0.2001 | 851.96 | – | 1.368
328.15 K, x2 = 0.3002 | 846.53 | – | 1.424
328.15 K, x2 = 0.4004 | 840.86 | – | 1.5
328.15 K, x2 = 0.5001 | 834.86 | – | 1.587
328.15 K, x2 = 0.6002 | 828.46 | – | 1.707
328.15 K, x2 = 0.7001 | 821.6 | – | 1.855
328.15 K, x2 = 0.7999 | 814.26 | – | 2.029
328.15 K, x2 = 0.9002 | 806.15 | – | 2.239
333.15 K, x2 = 0 | 859.2 | – | 1.284
333.15 K, x2 = 0.1001 | 853.48 | – | 1.232
333.15 K, x2 = 0.2001 | 848.24 | – | 1.257
333.15 K, x2 = 0.3002 | 842.78 | – | 1.303
333.15 K, x2 = 0.4004 | 837.09 | – | 1.367
333.15 K, x2 = 0.5001 | 831.09 | – | 1.44
333.15 K, x2 = 0.6002 | 824.68 | – | 1.54
333.15 K, x2 = 0.7001 | 817.82 | – | 1.663
333.15 K, x2 = 0.7999 | 810.48 | – | 1.808
333.15 K, x2 = 0.9002 | 802.4 | – | 1.984

Reference: the NIST ThermoML archive (doi:10.1021/je500381c)
